Measured values from patent publication US10815222B2, “Compounds for use in the treatment of kinetoplastid infection” (C.N.C.C.S. S.c.a.r.l. COLLEZIONE NAZIONALE DEI COMPOSTI …, priority 2016, dated 2020).
pEC50: −log10 of the molar value.

Test system: Bloodstream form of Trypanosoma brucei, strain Lister 427
Test: Trypanosoma brucei growth inhibition assay (CellTiter-Glo, 24 h)
Format: cell-based
Details: Trypanosoma brucei; T. Brucei Growth Inibition Assay, class symbols; read-out: T. Brucei GI EC50
Method in brief: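 Bloodstream-form T. brucei Lister 427, 1500 parasites per well in supplemented IMDM with 10% FBS, were exposed to compound (DMSO ≤0.25% final) for 24 h at 37 °C. Viability was measured by CellTiter-Glo luminescence.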

| Structure (SMILES) | pEC50 |
| --- | --- |
| COc1nc2ccccc2cc1-c1cnc([C@@H]2CN(CC3CCOC3)CCN2C(=O)Cn2c(C(F)(F)F)nc3ccccc32)[nH]1 (stereo partly drawn) [1-((2S)-2-(5-(2-methoxyquinolin-3-yl)-1H-imidazol-2-yl)-4-((tetrahydrofuran-3-yl)methyl)piperazin-1-yl)-2-(2-(trifluoromethyl)-1H-benzo[d]imidazol-1-yl)ethan-1-one] | > 7.00 |
| COc1nc2ccccc2cc1-c1cnc([C@@H]2CN(CC3CCOC3)CCN2C(=O)Cn2c(C)nc3ccc(C(F)(F)F)cc32)[nH]1 (stereo partly drawn) [1-((2S)-2-(5-(2-methoxyquinolin-3-yl)-1H-imidazol-2-yl)-4-((tetrahydrofuran-3-yl)methyl)piperazin-1-yl)-2-(2-methyl-6-(trifluoromethyl)-1H-benzo[d]imidazol-1-yl)ethan-1-one] | > 7.00 |
| COc1ccc2nc(C)n(CC(=O)N3CCN(CC4CCOC4)C[C@H]3c3ncc(-c4ccc5ncsc5c4)[nH]3)c2c1 (stereo partly drawn) [1-((2S)-2-(5-(benzo[d]thiazol-6-yl)-1H-imidazol-2-yl)-4-((tetrahydrofuran-3-yl)methyl)piperazin-1-yl)-2-(6-methoxy-2-methyl-1H-benzo[d]imidazol-1-yl)ethan-1-one] | 5.30 to 6.00 |
| COc1ccc2nc(C)n(CC(=O)N3CCN(CC4CCOC4)C[C@H]3c3ncc(-c4cc5ccccc5cn4)[nH]3)c2c1 (stereo partly drawn) [1-((2S)-2-(5-(isoquinolin-3-yl)-1H-imidazol-2-yl)-4-((tetrahydrofuran-3-yl)methyl)piperazin-1-yl)-2-(6-methoxy-2-methyl-1H-benzo[d]imidazol-1-yl)ethan-1-one] | 6.30 to 7.00 |
| COc1ccc2nc(C(F)(F)F)n(CC(=O)N3CCN(CC4CCN(C(C)=O)C4)C[C@H]3c3ncc(-c4cc5ccccc5nc4OC)[nH]3)c2c1 (stereo partly drawn) [1-((2S)-4-((1-acetylpyrrolidin-3-yl)methyl)-2-(5-(2-methoxyquinolin-3-yl)-1H-imidazol-2-yl)piperazin-1-yl)-2-(6-methoxy-2-(trifluoromethyl)-1H-benzo[d]imidazol-1-yl)ethan-1-one] | > 7.00 |
| COc1ccc2nc(C(F)(F)F)n(CC(=O)N3CCC(O)C[C@H]3c3ncc(-c4cc5ccccc5nc4OC)[nH]3)c2c1 (stereo partly drawn) [1-((2S)-4-hydroxy-2-(5-(2-methoxyquinolin-3-yl)-1H-imidazol-2-yl)piperidin-1-yl)-2-(6-methoxy-2-(trifluoromethyl)-1H-benzo[d]imidazol-1-yl)ethan-1-one] | > 7.00 |
| COc1ccc2nc(C(F)(F)F)n(CC(=O)N3CC[C@H](NCCn4cccn4)C[C@H]3c3ncc(-c4cc5ccccc5nc4OC)[nH]3)c2c1 [1-((2S,4S)-4-((2-(1H-pyrazol-1-yl)ethyl)amino)-2-(5-(2-methoxyquinolin-3-yl)-1H-imidazol-2-yl)piperidin-1-yl)-2-(6-methoxy-2-(trifluoromethyl)-1H-benzo[d]imidazol-1-yl)ethan-1-one] | > 7.00 |
| COc1ccc2nc(C(F)(F)F)n(CC(=O)N3CC[C@H](NCCO)C[C@H]3c3ncc(-c4cc5ccccc5nc4OC)[nH]3)c2c1 [1-((2S,4S)-4-((2-hydroxyethyl)amino)-2-(5-(2-methoxyquinolin-3-yl)-1H-imidazol-2-yl)piperidin-1-yl)-2-(6-methoxy-2-(trifluoromethyl)-1H-benzo[d]imidazol-1-yl)ethan-1-one] | > 7.00 |
| COc1ccc2nc(C(F)(F)F)n(CC(=O)N3CC[C@H](NCc4ccon4)C[C@H]3c3ncc(-c4cc5ccccc5nc4OC)[nH]3)c2c1 [1-((2S,4S)-4-((isoxazol-3-ylmethyl)amino)-2-(5-(2-methoxyquinolin-3-yl)-1H-imidazol-2-yl)piperidin-1-yl)-2-(6-methoxy-2-(trifluoromethyl)-1H-benzo[d]imidazol-1-yl)ethan-1-one] | > 7.00 |
| COc1ccc2nc(C(F)(F)F)n(CC(=O)N3CC[C@H](NCc4cnoc4)C[C@H]3c3ncc(-c4cc5ccccc5nc4OC)[nH]3)c2c1 [1-((2S,4S)-4-((isoxazol-4-ylmethyl)amino)-2-(5-(2-methoxyquinolin-3-yl)-1H-imidazol-2-yl)piperidin-1-yl)-2-(6-methoxy-2-(trifluoromethyl)-1H-benzo[d]imidazol-1-yl)ethan-1-one] | > 7.00 |
| COc1ccc2nc(C(F)(F)F)n(CC(=O)N3CC[C@H](NC4CCC4)C[C@H]3c3ncc(-c4cc5ccccc5nc4OC)[nH]3)c2c1 [1-((2S,4S)-4-(cyclobutylamino)-2-(5-(2-methoxyquinolin-3-yl)-1H-imidazol-2-yl)piperidin-1-yl)-2-(6-methoxy-2-(trifluoromethyl)-1H-benzo[d]imidazol-1-yl)ethan-1-one] | > 7.00 |
| COc1ccc2nc(C(F)(F)F)n(CC(=O)N3CC[C@H](N(C)C)C[C@H]3c3ncc(-c4cc5ccccc5nc4OC)[nH]3)c2c1 [1-((2S,4S)-4-(dimethylamino)-2-(5-(2-methoxyquinolin-3-yl)-1H-imidazol-2-yl)piperidin-1-yl)-2-(6-methoxy-2-(trifluoromethyl)-1H-benzo[d]imidazol-1-yl)ethan-1-one] | > 7.00 |
| CCN(C1CCOC1)[C@H]1CCN(C(=O)Cn2c(C(F)(F)F)nc3ccc(OC)cc32)[C@H](c2ncc(-c3cc4ccccc4nc3OC)[nH]2)C1 (stereo partly drawn) [1-((2S,4S)-4-(ethyl(tetrahydrofuran-3-yl)amino)-2-(5-(2-methoxyquinolin-3-yl)-1H-imidazol-2-yl)piperidin-1-yl)-2-(6-methoxy-2-(trifluoromethyl)-1H-benzo[d]imidazol-1-yl)ethan-1-one] | > 7.00 |
| COc1ccc2nc(C(F)(F)F)n(CC(=O)N3CC[C@H](NCC(C)C)C[C@H]3c3ncc(-c4cc5ccccc5nc4OC)[nH]3)c2c1 [1-((2S,4S)-4-(isobutylamino)-2-(5-(2-methoxyquinolin-3-yl)-1H-imidazol-2-yl)piperidin-1-yl)-2-(6-methoxy-2-(trifluoromethyl)-1H-benzo[d]imidazol-1-yl)ethan-1-one] | > 7.00 |
| COc1ccc2nc(C(F)(F)F)n(CC(=O)N3CC[C@H](N(Cc4ccn(C)n4)C(C)C)C[C@H]3c3ncc(-c4cc5ccccc5nc4OC)[nH]3)c2c1 [1-((2S,4S)-4-(isopropyl((1-methyl-1H-pyrazol-3-yl)methyl)amino)-2-(5-(2-methoxyquinolin-3-yl)-1H-imidazol-2-yl)piperidin-1-yl)-2-(6-methoxy-2-(trifluoromethyl)-1H-benzo[d]imidazol-1-yl)ethan-1-one] | > 7.00 |
| COc1ccc2nc(C(F)(F)F)n(CC(=O)N3CC[C@H](NC(C)C)C[C@H]3c3ncc(-c4cc5ccccc5nc4OC)[nH]3)c2c1 [1-((2S,4S)-4-(isopropylamino)-2-(5-(2-methoxyquinolin-3-yl)-1H-imidazol-2-yl)piperidin-1-yl)-2-(6-methoxy-2-(trifluoromethyl)-1H-benzo[d]imidazol-1-yl)ethan-1-one] | > 7.00 |
| COc1ccc2nc(C(F)(F)F)n(CC(=O)N3CC[C@H](N)C[C@H]3c3ncc(-c4cc5ccccc5nc4OC)[nH]3)c2c1 [1-((2S,4S)-4-amino-2-(5-(2-methoxyquinolin-3-yl)-1H-imidazol-2-yl)piperidin-1-yl)-2-(6-methoxy-2-(trifluoromethyl)-1H-benzo[d]imidazol-1-yl)ethan-1-one] | 5.30 to 6.00 |
| COc1ccc2nc(C(F)(F)F)n(CC(=O)N3CC[C@H](OC)C[C@H]3c3ncc(-c4cc5ccccc5nc4OC)[nH]3)c2c1 [1-((2S,4S)-4-methoxy-2-(5-(2-methoxyquinolin-3-yl)-1H-imidazol-2-yl)piperidin-1-yl)-2-(6-methoxy-2-(trifluoromethyl)-1H-benzo[d]imidazol-1-yl)ethan-1-one] | > 7.00 |
| COc1ccc2nc(C)n(CC(=O)N3CC[C@H](OC)C[C@H]3c3ncc(-c4cc5ccccc5nc4OC)[nH]3)c2c1 [1-((2S,4S)-4-methoxy-2-(5-(2-methoxyquinolin-3-yl)-1H-imidazol-2-yl)piperidin-1-yl)-2-(6-methoxy-2-methyl-1H-benzo[d]imidazol-1-yl)ethan-1-one] | > 7.00 |
| CN1CCN(S(=O)(=O)Cc2ccccc2)C(c2ncc(-c3ccc4ccccc4c3)[nH]2)C1 (centres unmarked) [1-(benzylsulfonyl)-4-methyl-2-(5-(naphthalen-2-yl)-1H-imidazol-2-yl)piperazine] | 5.30 to 6.00 |
| COc1nc2ccccc2cc1-c1cnc([C@@H]2CN(CC3CCOC3)CCN2C(=O)Cn2c(C(C)(C)C)nc3ccccc32)[nH]1 (stereo partly drawn) [2-(2-(tert-butyl)-1H-benzo[d]imidazol-1-yl)-1-((2S)-2-(5-(2-methoxyquinolin-3-yl)-1H-imidazol-2-yl)-4-((tetrahydrofuran-3-yl)methyl)piperazin-1-yl)ethan-1-one] | > 7.00 |
| Cc1[nH]c2ccccc2c1CC(=O)N1CCN(CC2CCOC2)CC1c1ncc(-c2ccc3ccccc3c2)[nH]1 (centres unmarked) [2-(2-methyl-1H-indol-3-yl)-1-(2-(5-(naphthalen-2-yl)-1H-imidazol-2-yl)-4-((tetrahydrofuran-3-yl)methyl)piperazin-1-yl)ethan-1-one] | > 7.00 |
| COc1cc2nc(C(F)(F)F)n(CC(=O)N3CCN(CC4CCOC4)C[C@H]3c3ncc(-c4cc5ccccc5nc4OC)[nH]3)c2cc1OC (stereo partly drawn) [2-(5,6-dimethoxy-2-(trifluoromethyl)-1H-benzo[d]imidazol-1-yl)-1-((2S)-2-(5-(2-methoxyquinolin-3-yl)-1H-imidazol-2-yl)-4-((tetrahydrofuran-3-yl)methyl)piperazin-1-yl)ethan-1-one] | > 7.00 |
| CCC(=O)CCCN1CCN(C(=O)Nc2ccccc2)C(c2ncc(-c3ccc4ccccc4c3)[nH]2)C1 (centres unmarked) [2-(5-(naphthalen-2-yl)-1H-imidazol-2-yl)-4-(4-oxohexyl)-N-phenylpiperazine-1-carboxamide] | 5.30 to 6.00 |
| COc1nc2ccccc2cc1-c1cnc(C2CN(Cc3cnccn3)CCN2C(=O)Cc2c(C)[nH]c3ccc(F)cc23)[nH]1 (centres unmarked) [2-(5-fluoro-2-methyl-1H-indol-3-yl)-1-(2-(5-(2-methoxyquinolin-3-yl)-1H-imidazol-2-yl)-4-(pyrazin-2-ylmethyl)piperazin-1-yl)ethan-1-one] | > 7.00 |
| COc1nc2ccccc2cc1-c1cnc(C2CN(C(=O)C3CCOC3)CCN2C(=O)Cc2c(C)[nH]c3ccc(F)cc23)[nH]1 (centres unmarked) [2-(5-fluoro-2-methyl-1H-indol-3-yl)-1-(2-(5-(2-methoxyquinolin-3-yl)-1H-imidazol-2-yl)-4-(tetrahydrofuran-3-carbonyl)piperazin-1-yl) ethan-1-one] | 5.30 to 6.00 |
